The EC50 is the midpoint of the concentration-response curve. The term IC50 denotes the concentration at which inhibition is half-maximal. Read a high IC50 as weaker potency.

Consider 72 molecules from PubChem BioAssay AID179 (DTP/NCI, 2004).

This assay deals with CEM cells HIV-1 protection, formazan growth assay. Briefly: NCI AIDS Antiviral Assay. Particulars: for IC50: measured here: growth of uninfected CEM cells. In short, it runs like this:
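Soluble formazan readout of cell growth; CEM cells ± HIV-1; 5 drug concs. ≥50% protection → retest; ≥50% again = moderately active; reproducible 100% = confirmed active.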

“And” between values parts separate entries of the source, which are not always exact repeats. Identical values can stand only once. The source made the active and inactive calls.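 Rule for the calls: active = compounds giving half or more protection of infected cells from virus-caused growth loss, again on retest; inactive = the rest.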 Where a SMILES comes first, the peptide text is derived from it. [ ]: non-standard residue; d: D form. The star is where a group is joined. Iva = CC[C](C)(N)C(=O)O; Boc = CC(C)(C)OC(=O)*; X8 = C1CCC(=NO*)C1 Bounds are passed on as bounds.

With `O=c1ccc(=O)n(-c2ccc(Cl)cc2)[nH]1`, the EC50 was greater than 162 µM and the IC50 is greater than 162 µM.

As to `CCOC(=O)C(C(=O)c1ccccc1C(=O)OC)=P(c1ccccc1)(c1ccccc1)c1ccccc1`, the EC50 was 22.9 µM and the 50% inhibitory concentration (IC50) amounted to 52.5 µM.

As for `COc1cc(Nc2nc(NS(=O)(=O)c3cc(C)c(Cl)cc3S)n[nH]2)cc(OC)c1OC`, the concentration for a half-maximal effect (EC50) was 112 µM and the IC50 was determined as 794 µM.

As to `Cc1cc(Cl)ccc1NC(=O)CC1SC(=Nc2ccccc2Cl)NC1=O` (configuration not stated), the EC50 is greater than 89.1 µM and the 50% inhibitory concentration (IC50) is 43.7 µM.

For the molecule `COC(=O)c1cc(=O)n2c(sc3ccccc32)c1C(=O)c1ccccc1`, the EC50 is greater than 10 µM and the IC50 was greater than 10 µM.

As for `CCOC(=O)/C(=C\c1ccnc2ccccc12)P(=O)(OCC)OCC`, the EC50 is greater than 200 µM and the IC50 was determined as 3.31 µM.

Regarding `c1ccc2c3c([nH]c2c1)C1(CCCCC1)c1c([nH]c2ccccc12)C31CCCCC1`, the EC50 is greater than 6.92 µM and the IC50 is greater than 6.92 µM.

`CCCCCCCCCCCCCP(=O)(OC)OC`: the outcome was inactive.

`Cc1ccc(C)c(C(=O)c2ccccc2C(=O)O)c1` displayed an EC50 greater than 200 µM and an IC50 greater than 200 µM.

Regarding `CC(C)OC(=O)c1cccnc1/C=N/O`, the EC50 is greater than 1200 µM and the IC50 came out at 112 µM.

For `COC(=O)Cc1cc(O)c2c(c1O)C(=O)c1ccccc1C2=O`, the outcome was inactive.

On to `CC(C)OP(=O)(OC(C)C)C(=Nc1ccncc1)NNc1ccc([N+](=O)[O-])cc1`, for which the EC50 is greater than 61.7 µM and the IC50 is greater than 61.7 µM.

As for `Cc1ccc(NC(=O)CC2SC(=Nc3cccc(Cl)c3C)NC2=O)cc1` (configuration not stated), the EC50 is greater than 240 µM and the half-maximal inhibitory concentration (IC50) turned out to be 110 µM.

For the molecule `Cc1ccc2c(c1)C(=O)N(N(C)C)CC(=O)N2`, the result was inactive.

As to `CC1(C)COC(Cc2ccccc2)=N1`, the EC50 is greater than 200 µM and the IC50 was greater than 200 µM.

For `Cc1nc2c(o1)C(=Nc1ccccc1)c1nc(C)oc1C2=Nc1ccccc1`, the result was inactive.

Turning to `COc1cccc(/C=N/[N-]C(N)=O)c1[O-].[Cu+2].[OH3+].c1ccc(-c2ccccn2)nc1`, the outcome was inactive.

As for `COc1cc2c3c(c1)nnn3C(=O)C(C)S2` (configuration not stated), the outcome was inactive.

On to `ClC(Cl)=C1C(=C(Cl)Cl)C(Cl)(Cl)C1(Cl)Cl`, for which the EC50 was greater than 52.5 µM and the IC50 came to 2.82 µM.

As to `CCC(C)(NC(=O)C(C)NC(=O)OC(C)(C)C)C(=O)NC(C)C(=O)NC(C)(CC)C(=O)ON=C1CCCC1` (configuration not stated) (Boc-A[Iva]A[Iva]-X8; configuration not given here), the EC50 is greater than 200 µM and the IC50 was 83.2 µM.

Turning to `O=C(Nc1ccc(S(=O)(=O)c2ccc(NC(=O)c3ccc(N=Nc4cc(S(=O)(=O)O)c5cccnc5c4O)cc3S(=O)(=O)O)cc2)cc1)c1ccc(N=Nc2cc(S(=O)(=O)O)c3cccnc3c2O)cc1S(=O)(=O)O`, the concentration giving a half-maximal response (EC50) is 3.8 µM and the half-maximal inhibitory concentration (IC50) was 93.3 µM.

Consider `Cc1cccc2c1OC(=O)C1CNCOC21` (configuration not stated), for which the EC50 is greater than 200 µM and the 50% inhibitory concentration (IC50) is 33.1 µM.

For `O=S(=O)(NC1CCCCC1)c1ccc2c(c1)OCCOCCOCCOCCO2`, the EC50 is greater than 200 µM and the IC50 was greater than 200 µM.

In the case of `CC1(C)CC(=O)c2c(nc3c(ccc4ccccc43)c2-c2ccc(NC(=O)CCC(=O)Nc3ccc(-c4c5c(nc6c4ccc4ccccc46)CC(C)(C)CC5=O)cc3)cc2)C1`, the EC50 is greater than 100 µM and the concentration for half-maximal inhibition (IC50) was greater than 100 µM.

Take `CCCCCCCCCCCCCCCCP(=O)([O-])OCC[N+](C)(C)C`: the EC50 was greater than 200 µM and the half-inhibitory concentration (IC50) was determined as 12 µM.

Regarding `CC(C)(C)c1cc(O)c2c(c1O)C(=O)CCC2`, the outcome was inactive.

With `CCN(CC)CC[NH-].O=C([O-])C(=O)[O-].O=C([O-])C(=O)[O-].[Co+3].[K+]`, the EC50 is greater than 200 µM and the IC50 is 148 µM.

For the molecule `Nc1nc(Cl)c(N=Nc2ccc(Cl)cc2)c(NCC2(CO)CCC2)n1`, the EC50 is greater than 200 µM and the concentration for half-maximal inhibition (IC50) was greater than 200 µM.

Regarding `Clc1ccc(C2NN=C3c4ccccc4OCC32)cc1` (configuration not stated), the EC50 was greater than 200 µM and the IC50 came to 4.27 µM.

As for `CC1=NOC(=O)/C1=C/c1ccccc1O`, the EC50 was greater than 178 µM and the IC50 was greater than 178 µM.

As to `CC1CCN(CC(=O)N2c3ccccc3Sc3cc4ccccc4cc32)CC1`, the EC50 was greater than 151 µM and the IC50 was greater than 151 µM.

Consider `Cc1ccc(N/C(Sc2ccccc2)=C(/C(Cl)=C(Cl)Cl)[N+](=O)[O-])c(C)c1`, for which the EC50 was greater than 200 µM and the half-inhibitory concentration (IC50) stood at 27.5 µM.

Turning to `COc1ccc(C(=O)CC2(O)C(=O)N(CN3CCOCC3)c3ccc(Br)cc32)cc1` (configuration not stated), the EC50 is greater than 123 µM and the 50% inhibitory concentration (IC50) worked out at 105 µM.

For the molecule `CCOC(=O)NC(=O)c1cn(CCN2CCN(C(=O)CCCCCCCCCCNc3ncnc4nc[nH]c34)CC2)c(=O)[nH]c1=O`, the result was inactive.

Turning to `CC(O)(P(=O)(O)O)P(=O)(O)OCC(O)CN1CCOCC1` (configuration not stated), the EC50 is greater than 100 µM and the IC50 is greater than 100 µM.

Regarding `CC(C)OP(=O)(OC(C)C)/C(=N/Nc1ccc([N+](=O)[O-])cc1)NNC(=O)c1ccccc1`, the EC50 was greater than 40.7 µM and the IC50 turned out to be 17 µM.

For `CC(=O)c1sc(/N=C\c2c(O)c3ccccc3oc2=O)nc1C`, the EC50 was greater than 200 µM and the half-maximal inhibitory concentration (IC50) stood at 38.9 µM.

For `CC(C)=N.[C-]#[O+].[C-]#[O+].[C-]#[O+].[C-]#[O+].[C-]#[O+].[W]`, the EC50 is greater than 13.8 µM and the IC50 was greater than 13.8 µM.

Turning to `CC12CCC([C@H](N3CCOCC3)/C1=N\OCCN1CCCC1)C2(C)C` (some centres not stated), the EC50 was greater than 251 µM and the half-inhibitory concentration (IC50) was found to be 138 µM.

Regarding `COc1ccc(/C=C2/N=C(N/N=C\C(O)C(O)C(O)C(O)CO)NC2=O)cc1` (configuration not stated), the IC50 was 77.6 µM and 112 µM.

Consider `CNc1nc(N(C)C)nc(N(C)C)n1`, for which the EC50 is greater than 537 µM and the half-maximal inhibitory concentration (IC50) came out at 407 µM.

As for `FC(F)(F)c1nc2cc(SSc3cc4nc(C(F)(F)F)[nH]c4cc3Cl)c(Cl)cc2[nH]1`, the EC50 was greater than 200 µM and the half-maximal inhibitory concentration (IC50) amounted to 7.41 µM.

Consider `COc1ccc(CC2NCCc3cc(OC)c(OC)cc32)cc1Br` (configuration not stated), for which the EC50 was greater than 240 µM and the IC50 worked out at 33.9 µM.

In the case of `CN(C)c1ccc(/C=c2\[nH]c(=O)/c(=C\c3ccc(N(C)C)cc3)[nH]c2=O)cc1`, the EC50 is greater than 50.1 µM and the IC50 was greater than 50.1 µM.

With `Cc1nc2cccc(F)c2c(=O)n1-c1nnc(C2CC2)s1`, the EC50 was greater than 200 µM and the IC50 was greater than 200 µM.

As to `O=[S@](c1ccccc1)[C@@H]1CC2C3CC4C2C4C31` (some centres not stated), the EC50 was greater than 537 µM and the IC50 amounted to 324 µM.

`CCN(CC)CCSc1c2ccccc2nc2c(OC)ccc(OC)c12`: the outcome was inactive.

As to `CCOC(=O)c1cc2c(=O)cccnc2o1`, the EC50 was greater than 52.5 µM and the half-maximal inhibitory concentration (IC50) is greater than 52.5 µM.

Regarding `CC(=O)c1sc(Nc2ccc(S(=O)(=O)Nc3nc(C)cc(C)n3)cc2)nc1C`, the EC50 was greater than 200 µM and the half-inhibitory concentration (IC50) is 112 µM.

As for `CC(C)(C)C(=O)C(C(=O)c1ccccc1)C(=O)C(C)(C)C`, the EC50 is greater than 200 µM and the IC50 was greater than 200 µM.

With `N=C1OC(CN2CCN(c3ccccc3)CC2)CN1C(=S)Nc1ccccc1` (configuration not stated), the EC50 was greater than 200 µM and the IC50 was 141 µM.

As for `Cc1c(NC(=O)CSC(=S)N(C)C)c(=O)n(-c2ccccc2)n1C`, the EC50 was 89.1 µM and the IC50 was greater than 200 µM.

For the molecule `O=C1NC(N/N=C\C(O)C(O)C(O)CO)=N/C1=C/c1ccc(Cl)cc1` (configuration not stated), the EC50 is greater than 200 µM, the outcome was inactive and the 50% inhibitory concentration (IC50) is 30.2 µM.

As for `CC(=O)N=C1N(/C=C2\C(=O)Oc3ccccc3C2=O)C(=O)/C(=C/c2ccc(Cl)cc2Cl)N1C`, the EC50 was greater than 200 µM and the 50% inhibitory concentration (IC50) is 34.7 µM.

Regarding `C=C1C(OC(C)=O)[C@@]23CC[C@@H]4C(C)(C(=O)OC)CCCC4(C)[C@@H]2CC[C@@H]1C3` (some centres not stated), the EC50 is greater than 200 µM and the IC50 worked out at 51.3 µM.

Turning to `Cn1ccnc1CCc1ccc(F)cc1F`, the EC50 was greater than 200 µM and the IC50 is greater than 200 µM.

`CCCOC(C(=O)OC1CCC2CCC1N2C)(c1ccccc1)c1ccccc1` (configuration not stated): the EC50 was greater than 200 µM and the half-maximal inhibitory concentration (IC50) stood at 28.8 µM.

On to `C[Si](C)(C)C(Sc1ccccc1)(Sc1ccccc1)Sc1ccccc1`, for which the result was inactive.

On to `CN(C)C=Nc1cccc2nsnc12`, for which the EC50 is greater than 200 µM and the IC50 is greater than 200 µM.

Turning to `O=C1Cc2c(-c3ccccc3)cc(-c3cccc(Cl)c3)nc2-c2ccccc2N1`, the outcome was inactive.

As to `CCCCCCCc1ccc(OC2OC(CO)C(O)C(O)C2O)cc1` (configuration not stated), the EC50 was greater than 126 µM; the IC50 was 29.5 µM and 10.2 µM.

With `O=[N+]([O-])c1cc([As](=O)(O)O)ccc1S(=O)(=O)O`, the EC50 was greater than 200 µM and the half-inhibitory concentration (IC50) is greater than 200 µM.

Regarding `COc1cc2cc3cc(-c4ccc(Cl)cc4)c(N4CCN(C)CC4)nc3nc2cc1OC`, the EC50 was greater than 39.8 µM and the IC50 turned out to be 6.61 µM.

In the case of `CN(C)P1(=S)NCC(C(C)(C)C)CO1` (configuration not stated), the EC50 was greater than 105 µM and the IC50 is greater than 105 µM.

For the molecule `CC(CO)CCNc1ncnc2c1ncn2CCC(=O)O` (configuration not stated), the EC50 was greater than 200 µM and the IC50 was greater than 200 µM.

On to `CCN(CC)CCOC(NC(C)=O)(c1ccccc1)c1ccccc1`, for which the EC50 was greater than 200 µM and the IC50 was greater than 200 µM.

As for `COC(=O)C(CC(=O)Nc1ccc(Cl)c(Cl)c1)C(=O)C(=O)NC1C2CC3CC(C2)CC1C3` (configuration not stated), the EC50 was greater than 70.8 µM and the concentration for half-maximal inhibition (IC50) was greater than 70.8 µM.

As to `O=C(CC(=O)c1ccccc1)C(=O)Nc1ccc(Cl)cc1`, the EC50 is greater than 12 µM and the IC50 was greater than 12 µM.

`COc1cc2c3c(c1)nc(C)n3C(=O)CS2`: the EC50 was greater than 200 µM and the half-maximal inhibitory concentration (IC50) is greater than 200 µM.

For the molecule `CC(C)=CCNc1ncnc2c1ncn2CCC(=O)O`, the EC50 was greater than 200 µM and the IC50 is greater than 200 µM.

In the case of `NNC(=O)N/N=C1\CN(c2ccc(Cl)cc2Cl)C(=O)C(=O)C1c1nc2ccccc2o1` (configuration not stated), the result was inactive.

For `CC1(C)OC(=O)c2cc(C(=CCCBr)c3cc(Cl)c4c(c3)C(=O)OC(C)(C)O4)cc(Cl)c2O1`, the EC50 was greater than 100 µM and the concentration for half-maximal inhibition (IC50) came to 41.7 µM.
